One assay relates to MDA-MB-231 cells. Put plainly: Antiproliferative assay, MDA-MB-231 cells. Type of assay: cell-based, human. Particulars: 72 hours; for IC50: read-out: MDA-MB-231 50% cell growth inhibition; for sensitivity of MDA-MB-231 cells, in words: FIG. 23 Panel B. The text has this:
MDA-MB-231 cells, which were also derived from an adenocarcinoma of the breast, are less differentiated than the MCF-7 cells and fail to express functional p53 or estrogen receptors. This class of tumor cells contains important targets for new therapies, because loss of estrogen receptor expression is associated with poor patient prognosis. (Osborne, C. K. Breast Cane. Res. Treatm. 1998, 51, 227).
The inventors extrapolated to determine the IC50 for compounds with little cytotoxicity at 30,μM, the highest concentration tested. […] The enhanced sensitivity of MCF-7 to these compounds may be due to the expression of p53 in these cells.
(§1) Two compounds, 24 referred to herein as SR-4 and 27 referred to herein as SR-7, were examined in greater detail as to their effects on biological activity. The proliferation of MCF-7, MDA-MB-231 and SV40 transformed mouse embryonic fibroblasts was measured by a previously described colorimetric assay (Wipf P, Jung J-K, Rodriguez S, Lazo JS Synthesis and biological evaluation of Deoxypreussomerin A and Palmarumycin CP 1 and related naphthoquinone spiroketals. Tetrahedron 57:283-296, 2001 and Vogt A, Rice RL, Settineri CE, Yokokawa F, Yokokawa S, Wipf P and Lazo JS (1998) Disruption of insulin-like growth factor-I signaling and down-regulation of Cdc2 by SC-ααδ9, a novel small molecule antisignaling agent identified in a targeted array library. J Pharmacol Exptl Therap 287:806-813.). Briefly, the inventors seeded 4,000-6,000 cells per well in microtiter plates. Cells were allowed to attach overnight and treated with vehicle or compounds for 72 h, after which the medium was replaced with serum free medium containing 0.1% 3-[4,5-dimethylthiazol-2-yl]-2,5-diphenyl tetrazolium bromide. Plates were incubated for 3 hours in the dark and total cell number was determined by spectrophotometrically at 540 nm as previously described (Vogt A, Rice RL, Settineri CE, Yokokawa F, Yokokawa S, Wipf P and Lazo JS (1998) Disruption of insulin-like growth factor-1 signaling and down-regulation of Cdc2 by SC-ααδ9, a novel small molecule antisignaling agent identified in a targeted array library. J Pharmacol Exptl Therap 287:806-813.). […] Cells were maintained in RPMI 1640 medium containing 10% fetal bovine serum and the paclitaxel-resistant cells also contained 17 nM paclitaxel and 10 μM verapamil. Cells were plated (2,000/well) in 96-well plates and allowed to attach and grow for 72 hours (paclitaxel and verapamil were removed from resistant cell medium two weeks prior to this plating). They were then treated with 0.5% DMSO vehicle control or 0.08-10 μM compound. The number of cells was determined spectrophotometrically at 490 nm minus absorbance at 630 nm after exposure to 3-(4,5-dimethylthiazol-2-yl)-5-(3-carboxymethoxyphenyl)-2-(4-sulfophenyl)-2H-tetrazolium and N-methyldibenzopyurazine methyl sulfate.
Because of the potential importance of the tumor suppressor gene p53 and the estrogen receptor in controlling the cellular response to cytotoxic agents, the inventors also examined the sensitivity of MDA-MB-231 cells, which lack functional p53 and estrogen receptors. […] As might be expected, these p53 and estrogen receptor deficient cells were generally less sensitive to both natural products and analogs when compared to MCF-7 cells.

The test system of another assay is MCF-7 cells. Put plainly: Antiproliferative assay, MCF-7 cells. It is filed as cell-based. Particulars: read-out: MCF-7 50% cell growth inhibition. The method, then: Two widely used human breast cancer cell lines were evaluated for sensitivity to the cytotoxic effects of the naphthoquinone spiroketals. MCF-7 cells were originally derived from an adenocarcinoma of the breast and retain several characteristics of differentiated mamnmary epithelium including the ability to process estradiol via cytoplasmic estrogen receptors. MCF-7 cells express the tumor suppressor gene product p53, which is required for the programmed cell death or apoptosis caused by many agents. (Foster, B. A.; Coffey, H. A.; Morin, M. J.; Rastinejad, F. Science 1999, 286, 2507).
as §1, with “The” for “Two compounds, 24 referred to herein as SR-4 and 27 referred to herein as SR-7, were examined in greater detail as to their effects on biological activity. The”, “sulfate. […]” for “sulfate.”

Like-named read-outs stand apart in the source and are kept apart here.

As for `O=C1C=CC2(Oc3cccc4cccc(c34)O2)c2cccc(OC/C=C/c3ccccc3)c21` [SR-1, (E)-8-(3-phenyl-allyloxy)-1-oxo-1,4-dihydronaphthalene-4-spiro-2′-naphto[1″, 8″-de] [1′,3′] dioxin], the IC50 in the assay with MDA-MB-231 cells (Homo sapiens, MDA-MB-231) came to 7500 nM; in the assay on MCF-7 cells (Homo sapiens, MCF7, 72 h), 7900 nM.
For `C/C=C/COc1cccc2c1C(=O)C=CC21Oc2cccc3cccc(c23)O1` [SR-2, (E)-8-(but-2-enyloxy)-1-oxo-1,4-dihydronaphthalene-4-spiro-2′-naphto [1″,8″-de][1′,3′]dioxin] the same measures were 2900 nM and 1300 nM.
For the compound `CCCCCCOc1cccc2c1C(=O)C=CC21Oc2cccc3cccc(c23)O1` [SR-3, 8-hexyloxy-1-oxo-1,4-dihydronaphthalene-4-spiro-2′-naphto [1″,8″-de] [1′,3′] dioxin], the IC50 in the assay with MDA-MB-231 cells (Homo sapiens, MDA-MB-231) is 13600 nM; in the assay with MCF-7 cells (Homo sapiens, MCF7, 72 h) it was 13400 nM.
For `COc1cccc(COc2cccc3c2C(=O)C=CC32Oc3cccc4cccc(c34)O2)c1` [SR-5, 8-(3-methoxy-benzyloxy)-1-oxo-1,4-dihydronaphthalene-4-spiro-2′-naphto [1″,8″-de][1′,3′] dioxin] the same measures were 2700 nM and 2300 nM.
Consider `O=C1C=CC2(Oc3cccc4cccc(c34)O2)c2cccc(OCCc3ccccc3)c21` [SR-6, 8-(2-phenyl-ethoxy)-1-oxo-1,4-dihydronaphthalene-4-spiro-2′-naphto [1″,8″-de][1′,3′] dioxin], for which the IC50 in the assay with MDA-MB-231 cells (Homo sapiens, MDA-MB-231) is 4600 nM; with MCF-7 cells (Homo sapiens, MCF7, 72 h), 3900 nM.
On to `O=C1C=CC2(Oc3cccc4cccc(c34)O2)c2cccc(OCc3ccco3)c21` [SR-7, 8-(furan-2-ylmethoxy)-1-oxo-1,4-dihydronaphthalene-4-spiro-2′-naphto [1″,8″-de][1′,3′] dioxin], for which, in the assay on MDA-MB-231 cells, the “sensitivity of MDA-MB-231 cells, in words” value is listed as “equally sensitive”. For the same compound, the IC50 with MDA-MB-231 cells (Homo sapiens, MDA-MB-231) was 2500 nM; with MCF-7 cells (72 hours), 1100 nM; in the assay on MCF-7 cells (Homo sapiens, MCF7, 72 h), 1000 to 2000 nM.
As to `CC(C)=CCC/C(C)=C/COc1cccc2c1C(=O)C=CC21Oc2cccc3cccc(c23)O1` [SR-9, (E,E)-8-(3,7-diemthyl-octa-2,6-dienyloxy)-1-oxo-1,4-dihydronaphthalene-4-spiro-2′-naphtol [1″,8″-de][1′,3′] dioxin], the IC50 in the assay on MDA-MB-231 cells (Homo sapiens, MDA-MB-231) was determined as 2000 nM; in the assay with MCF-7 cells (Homo sapiens, MCF7, 72 h), 4600 nM.
The matching figures for `O=C1C=CC2(Oc3cccc4cccc(c34)O2)c2cccc(OCc3ccoc3)c21` [SR-10, 8-(furan-3-ylmethoxy)-1-oxo-1,4-dihydronaphthalene-4-spiro-2′-naphto [1′,8′-de][1′,3′] dioxin]: 2000 nM and 2000 nM.
The matching figures for `O=C1C=CC2(Oc3cccc4cccc(c34)O2)c2cccc(OCc3ccccn3)c21` [SR-11, 8-(pyridin-2-ylmethoxy)-1-oxo-1,4-dihydronaphthalene-4-spiro-2′-naphto [1″,8″-de][1′,3′] dioxin]: 2800 nM and 2000 nM.
For `O=C1C=CC2(Oc3cccc4cccc(c34)O2)c2cccc(OCc3cccnc3)c21` [SR-12, 8-(pyridin-3-ylmethoxy)-1-oxo-1,4-dihydronaphthalene-4-spiro-2′-naphto [1″,8″-de][1′,3′] dioxin] the same measures were 1400 nM and 1500 nM.
With `O=C1C=CC2(Oc3cccc4cccc(c34)O2)c2cccc(OCc3ccncc3)c21` [SR-13, 8-(pyridin-4-ylmethoxy)-1-oxo-1,4-dihydronaphthalene-4-spiro-2′-naphtol [1″,8″-de][1′,3′] dioxin], the IC50 came out at 7300 nM in the assay on MDA-MB-231 cells (Homo sapiens, MDA-MB-231) and 8000 nM in the assay on MCF-7 cells (Homo sapiens, MCF7, 72 h).
For `C=CCOc1cccc2c1C(=O)C=CC21Oc2cccc3cccc(c23)O1` [SR-14, 8-allyloxy-1-oxo-1,4-dihydronaphthalene-4-spiro-2′-naphto [1″,8″-de][1′,3′] dioxin] the same measures were 2700 nM and 2000 nM.
Take `COc1ccc(COc2cccc3c2C(=O)C=CC32Oc3cccc4cccc(c34)O2)cc1` [TH-39, 8-(4-methoxy-benzyloxy)-1-oxo-1,4-dihydronaphthalene4-spiro-2-naphto [1,8-de][1, 3]dioxin]: the IC50 in the assay with MDA-MB-231 cells (Homo sapiens, MDA-MB-231) was 2200 nM; with MCF-7 cells (Homo sapiens, MCF7, 72 h), 700 nM.
For `O=C1C=CC2(OCCO2)c2cccc(O)c21` [TH-169] the same measures were 4300 nM and 4200 nM.
Consider `COc1cccc2c1C(=O)C=CC21OCCCO1` [TH-223], for which the IC50 amounted to 5000 nM with MDA-MB-231 cells and 4400 nM in the assay with MCF-7 cells (72 hours).
Consider `O=C1C=CC2(Oc3cccc4cccc(c34)O2)c2cccc(O)c21` [palmarumycin CP1, 8-hydroxy-1-oxo-1,4-dihydronaphthalene-4-spiro-2′-naphtho[1″,8″-de] [1′,3′] dioxin, reference compound], for which the “sensitivity of MDA-MB-231 cells, in words” value with MDA-MB-231 cells is reported as “equally sensitive”. Further, the IC50 with MDA-MB-231 cells (Homo sapiens, MDA-MB-231) is 2400 nM; in the assay on MCF-7 cells (72 hours), 1000 nM; with MCF-7 cells (Homo sapiens, MCF7, 72 h) it was 1000 to 2000 nM.
